“Also recorded” adds a separate entry of the source. Read-outs that look alike come from different tables or passages of the source. One block for each compound: values may come before it.
How the values were obtained:
[1] = system: post-lung transplant BOS; conditions: prophylactic, compared to placebo; cited from earlier work
[2] = system: patients with post-lung transplant BOS; conditions: patients with an FEV1 response vs those without; cited from earlier work
[3] = target: human JAK2 (Homo sapiens (Human), UniProt O60674); assay: In vitro JAK kinase assay (Example A), JAK2; format: biochemical; conditions: JAK2/JAK1 IC50 ratio, 1 mM ATP
Description: The compounds in Table 2 were tested in this assay and shown to have the IC50 values in Table 2.

[4] = system: alloreactive mouse model (GVHD); conditions: prophylactic and therapeutic dosing, 60 mg/kg per day or 120 mg/kg per day; cited from earlier work
[5] = target: human JAK1 (Homo sapiens, UniProt P23458); assay: In vitro JAK kinase assay (Example A), JAK1; format: biochemical; conditions: 1 mM ATP
Excerpt: In some embodiments, the JAK1 pathway inhibitor is a compound of Table 2, or a pharmaceutically acceptable salt thereof.

[6] = system: patients with aGVHD; conditions: human, in vivo, cited from earlier work
[7] = system: patients with BOS after lung transplantation; conditions: cited from earlier work
[8] = system: pediatric patients with lung cGVHD; conditions: cited from earlier work
[9] = system: patients with lung cGVHD; conditions: response defined by an increase in FEV1 of ≥10%; cited from earlier work
[10] = system: patients with cGVHD; conditions: human, in vivo; cited from earlier work
[11] = system: patients with post-lung transplant BOS; conditions: switching from cyclosporine to tacrolimus; cited from earlier work

Sequence of human JAK2 (O60674 828-1132): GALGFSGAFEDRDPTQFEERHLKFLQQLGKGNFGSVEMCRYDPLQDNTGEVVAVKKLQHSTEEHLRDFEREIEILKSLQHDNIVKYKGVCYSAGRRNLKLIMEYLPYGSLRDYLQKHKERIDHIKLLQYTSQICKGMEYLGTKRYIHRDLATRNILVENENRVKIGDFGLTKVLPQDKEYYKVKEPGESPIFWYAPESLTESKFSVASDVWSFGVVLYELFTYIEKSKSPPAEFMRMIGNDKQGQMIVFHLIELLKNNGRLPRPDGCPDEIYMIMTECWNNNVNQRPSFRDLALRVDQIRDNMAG

Structure (SMILES): CC[C@H]1OC(=O)[C@H](C)[C@@H](O[C@H]2C[C@@](C)(OC)[C@@H](O)[C@H](C)O2)[C@H](C)[C@@H](O[C@@H]2O[C@H](C)C[C@H](N(C)C)[C@H]2O)[C@](C)(O)C[C@@H](C)CN(C)[C@H](C)[C@@H](O)[C@]1(C)O [Azithromycin]
cases of BOS [1]: fewer cases of BOS
overall survival [1]: overall survival was not affected
overall survival [2]: overall survival advantage

Structure (SMILES): CC(C)(O)c1ccccc1CC[C@@H](SCC1(CC(=O)O)CC1)c1cccc(/C=C/c2ccc3ccc(Cl)cc3n2)c1 [Montelukast]
effect on lung function decline ([7]; overall cohort, 30 patients randomized vs placebo): no effect on lung function decline
decline of FEV1 ([7]; post-hoc subanalysis of BOS grade 1 patients, absolute and predicted FEV1): attenuated further decline of FEV1

Structure (SMILES): N#CC[C@H](C1CCCC1)n1cc(-c2ncnc3[nH]ccc23)cn1 [ruxolitinib]
increase in FEV1 ([8]; 1 patient): 9%
responses ([8]; 5 pediatric patients (4 evaluable)): 2
decrease of the steroid requirement ([8]; final patient): > 50%
patients able to wean steroids completely ([8]; human, in vivo): Four out of five
patients with FEV1 responses [9]: 4 out of 5
clinical efficacy in chronic GVHD [10]: produced clinical efficacy
clinical efficacy in acute GVHD [6]: demonstrated clinical efficacy

Structure (SMILES): C=CC[C@@H]1/C=C(\C)C[C@H](C)C[C@H](OC)[C@H]2O[C@@](O)(C(=O)C(=O)N3CCCC[C@H]3C(=O)O[C@H](/C(C)=C/[C@@H]3CC[C@@H](O)[C@H](OC)C3)[C@H](C)[C@@H](O)CC1=O)[C@H](C)C[C@@H]2OC [tacrolimus]
loss of predicted FEV1 [11]: decrease in the loss of predicted FEV1

The next lines start with results.

JAK2/JAK1 [3]: >10
IC50 [5]: < 10 nM
Structure (SMILES): N#CCC1(n2cc(-c3ncnc4[nH]ccc34)cn2)CN(C2CCN(C(=O)c3ccnc(C(F)(F)F)c3F)CC2)C1 [Compound 1, {1-{1-[3-Fluoro-2-(trifluoromethyl)isonicotinoyl]piperidin-4-yl}-3-[4-(7H-pyrrolo[2,3-d]pyrimidin-4-yl)-1H-pyrazol-1-yl]azetidin-3-yl}acetonitrile]
GVHD score [4]: improvement in the GVHD score
clinical efficacy in acute GVHD ([6]; listed as itacitinib): demonstrated clinical efficacy; also recorded: significant clinical activity

JAK2/JAK1 [3]: >10
IC50 [5]: < 10 nM
Structure (SMILES): C[C@@H](CO)NCc1cc(OC2CCN([C@H]3C[C@](CC#N)(n4cc(-c5ncnc6[nH]ccc56)cn4)C3)CC2)nc(C(F)(F)F)c1 [Compound 23, {trans-3-(4-{[4-({[(1S)-2-hydroxy-1-methylethyl]amino}methyl)-6-(trifluoromethyl)pyridin-2-yl]oxy}piperidin-1-yl)-1-[4-(7H-pyrrolo[2,3-d]pyrimidin-4-yl)-1H-pyrazol-1-yl]cyclobutyl}acetonitrile]

JAK2/JAK1 [3]: >10
IC50 [5]: < 10 nM
Structure (SMILES): C[C@@H](O)CNCc1cc(OC2CCN([C@H]3C[C@](CC#N)(n4cc(-c5ncnc6[nH]ccc56)cn4)C3)CC2)nc(C(F)(F)F)c1 [Compound 24, {trans-3-(4-{[4-({[(2R)-2-hydroxypropyl]amino}methyl)-6-(trifluoromethyl)pyridin-2-yl]oxy}piperidin-1-yl)-1-[4-(7H-pyrrolo[2,3-d]pyrimidin-4-yl)-1H-pyrazol-1-yl]cyclobutyl}acetonitrile]

JAK2/JAK1 [3]: >10
IC50 [5]: < 10 nM
Structure (SMILES): C[C@H](O)CNCc1cc(OC2CCN([C@H]3C[C@](CC#N)(n4cc(-c5ncnc6[nH]ccc56)cn4)C3)CC2)nc(C(F)(F)F)c1 [Compound 25, {trans-3-(4-{[4-({[(2S)-2-hydroxypropyl]amino}methyl)-6-(trifluoromethyl)pyridin-2-yl]oxy}piperidin-1-yl)-1-[4-(7H-pyrrolo[2,3-d]pyrimidin-4-yl)-1H-pyrazol-1-yl]cyclobutyl}acetonitrile]

JAK2/JAK1 [3]: >10
IC50 [5]: < 10 nM
Structure (SMILES): N#CC[C@]1(n2cc(-c3ncnc4[nH]ccc34)cn2)C[C@H](N2CCC(Oc3cc(CCO)cc(C(F)(F)F)n3)CC2)C1 [Compound 26, {trans-3-(4-{[4-(2-hydroxyethyl)-6-(trifluoromethyl)pyridin-2-yl]oxy}piperidin-1-yl)-1-[4-(7H-pyrrolo[2,3-d]pyrimidin-4-yl)-1H-pyrazol-1-yl]cyclobutyl}acetonitrile]

— patent US11406640B2, “JAK1 pathway inhibitors for the treatment of chronic lung allograft dysfunction” (Incyte Corporation, priority 2019, dated 2022)
